Where two headings read alike, the source gives them in different places. Each block holds one compound with its values, some of them ahead of it.
Legend:
Assay type in all cases: cell-based
[1] = tested on: PC3; assay: in vitro antiproliferation assay, PC3 (prostate)
Method: (§1) The IC50 values of various compounds against a various different tumor cell lines were determined using standard in vitro antiproliferation assays. The tumor cell lines tested were as follows: A549 (lung); H1299 (lung), ACHN (kidney/p53 wt), CAKI (renal cell carcinoma), NCI-H460 (lung); HCT116 (colon/p53w0; HELA (cervix/p53 wt), HUH7 (liver/p53 wt), HUVEC (primary endothelial), LNCAP (prostate), HT-29 (colon); MCF-7 (breast); MCF-7 (breast/ER positive), MDA MB435S (breast); MDA MB231 (breast/ER negative), DU145 (prostate); BxPC-3 (pancreatic); SKOV-3 (ovarian); HepG2 (hepatic), NDHF primary normal human dermal fibroblast), SKMEL28 (breast/p53mut), SKMEL5 (breast/p53 wt), U20S (bone) and PC3 (prostate). […] A blank indicates the specified compound was not tested against the specified cell line.
(§2) Many of the compounds were tested against other cell lines. Their activity is reported in TABLE 15, below, where +”, “−”, “−/+” or “+/−” values are as described for TABLES 1-14. Where the cell line includes a value in a parenthetical, the value indicates the seeding density at which the assay was performed

[2] = tested on: A549 cells; assay: in vitro antiproliferation assay, A549 (lung)
How it was run: (§3)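 Standard in vitro antiproliferation assays on tumour cell lines, including A549 and H1299 (both lung); IC50 values determined.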

[3] = tested on: H1299 cells; assay: in vitro antiproliferation assay, H1299 (lung)
How it was run: as §3

[4] = tested on: HCT116; assay: in vitro antiproliferation assay, HCT116 (colon)
Method: as §1, §2

[5] = A549 (lung) cells, in vitro antiproliferation
[6] = A549 (lung) cells, antiproliferation
[7] = Table 5, in vitro antiproliferation, A549 (lung) cells
[8] = HCT116 (colon), read-out: HCT116
[9] = Table 7, in vitro antiproliferation, A549 (lung) cells
[10] = Table 5, in vitro antiproliferation, H1299 (lung) cells
[11] = Table 7, in vitro antiproliferation, H1299 (lung) cells
[12] = Table 7, in vitro antiproliferation, colon cells, read-out: HTC116
[13] = IC50 class against H1299 (lung) tumor cells
[14] = IC50 class against A549 (lung) tumor cells
[15] = in vitro antiproliferation, A549 (lung) cells, Table 4, compounds with no designated stereochemistry tested as racemate
[16] = H1299 (lung) cells, in vitro antiproliferation

Compound: COCCOc1cccc(Nc2ncc(F)c(Nc3cc(O)c(O)c(OCCOC)c3)n2)c1 [compound 933]
IC50 ([3]; H1299 (lung) cells, antiproliferation): ≤ 20 µM | IC50 [2, 6]: ≤ 20 µM | IC50 [4, 8]: ≤ 20 µM

Compound: CNC(=O)COc1cccc(Nc2ncc(F)c(Nc3ccc4c(c3)OCCO4)n2)c1 [compound 495]
IC50 [3, 10]: ≤ 20 µM | IC50 [2, 7]: < 20 µM | IC50 [4, 8]: ≤ 20 µM

Compound: OCc1cc(CO)cc(Nc2ncc(F)c(Nc3ccc4c(c3)OC(F)(F)C(F)(F)O4)n2)c1 [compound 534]
IC50 [3, 10]: ≤ 20 µM | IC50 [4, 8]: ≤ 20 µM

Compound: COc1cc(Nc2nc(Nc3cccc4cc(C(=O)NC(C)(C)CO)[nH]c34)ncc2F)cc(OC)c1 [compound 660]
IC50 [3, 11]: ≤ 20 µM | IC50 [2, 9]: ≤ 20 µM | IC50 [4, 12]: ≤ 20 µM

Compound: COC(=O)N1CCN(c2ccc(Nc3ncc(F)c(NC4CC4)n3)cc2)CC1 [compound 104]
IC50 [3, 13]: ≤ 20 µM | IC50 [2, 14]: ≤ 20 µM | IC50 [4, 8]: > 20 µM

Compound: COc1cc(Nc2nc(Nc3cc(C)c(C)c(C)c3)ncc2F)cc(OC)c1 [compound 845]
IC50 [3, 16]: ≤ 20 µM | IC50 [2, 5]: ≤ 20 µM | IC50 [4, 8]: ≤ 20 µM

Compound: Cc1cc(C)cc(Nc2ncc(F)c(Nc3cc(C)cc(C)c3)n2)c1 [compound 841]
IC50 [3, 16]: ≤ 20 µM | IC50 [2, 5]: ≤ 20 µM | IC50 [4, 8]: ≤ 20 µM

Compound: Fc1cnc(Nc2ccc(Cl)c(Cl)c2)nc1NC1CCC1 [compound 111]
IC50 [3, 13]: ≤ 20 µM | IC50 [2, 14]: ≤ 20 µM | IC50 [4, 8]: ≤ 20 µM

Compound: COc1ccc(Nc2ncc(F)c(NC3CCC3)n2)cc1Cl [compound 112]
IC50 [3, 13]: ≤ 20 µM | IC50 [2, 14]: ≤ 20 µM | IC50 [4, 8]: ≤ 20 µM

Compound: COC(=O)COc1cccc(Nc2ncc(F)c(Nc3cc(C)c(O)c(C)c3)n2)c1 [compound 982]
IC50 [1]: > 20 µM | IC50 [2, 6]: > 20 µM

Compound: Fc1cnc(Nc2cccc(OCCN3CCOCC3)c2)nc1Nc1ccc2c(c1)OCCO2 [compound 500]
IC50 [1]: > 20 µM

Compound: CN(C)CCOc1cccc(Nc2ncc(F)c(Nc3ccc4c(c3)OCCO4)n2)c1 [compound 510]
IC50 [1]: > 20 µM | IC50 [2, 7]: > 20 µM

Compound: Fc1ccc(Nc2ncc(F)c(Nc3ccc(F)c(Cl)c3)n2)cc1Cl [compound 938]
IC50 [1]: > 20 µM | IC50 [2, 6]: > 20 µM

Compound: Cc1c(Cl)cc(Nc2ncc(F)c(Nc3ccc4c(c3)NC(=O)C(C)(C)O4)n2)cc1Cl [compound 306]
IC50 ([3]; in vitro antiproliferation, H1299 (lung) cells, Table 4, compounds with no designated stereochemistry tested as racemate): ≤ 20 µM | IC50 [2, 15]: ≤ 20 µM | IC50 [4, 8]: > 20 µM

Compound: COc1cc(Nc2nc(Nc3cccc4cc(C(=O)N(C)CCO)[nH]c34)ncc2F)cc(OC)c1 [compound 659]
IC50 [3, 11]: ≤ 20 µM | IC50 [2, 9]: ≤ 20 µM | IC50 [4, 12]: ≤ 20 µM

Compound: CC(C)(C)c1ccc(Nc2nc(Nc3cccc(OCC(=O)O)c3)ncc2F)cc1 [compound 749]
IC50 [1]: > 20 µM | IC50 [2, 5]: > 20 µM

Compound: CN(CCO)C(=O)COc1cccc(Nc2ncc(F)c(Nc3ccc4c(c3)OCCO4)n2)c1 [compound 509]
IC50 [1]: > 20 µM | IC50 [2, 7]: > 20 µM

Compound: Cc1cc(Nc2nc(Nc3cccc(OCC(=O)N4CCNCC4)c3)ncc2F)cc(Cl)c1O [compound 983]
IC50 [1]: > 20 µM | IC50 [2, 6]: ≤ 20 µM

Compound: O=C(O)COc1cccc(Nc2ncc(F)c(Nc3cccc(O)c3)n2)c1 [compound 978]
IC50 [1]: > 20 µM | IC50 [2, 6]: > 20 µM

Compound: CNC(=O)COc1cccc(Nc2ncc(F)c(Nc3ccc(OC(C)C)cc3)n2)c1 [compound 751]
IC50 [1]: > 20 µM | IC50 [2, 5]: < 20 µM

Compound: O=C(COc1cccc(Nc2ncc(F)c(Nc3cccc(O)c3)n2)c1)N1CCNCC1 [compound 761]
IC50 [1]: > 20 µM

Compound: O=C(COc1cccc(Nc2ncc(F)c(Nc3ccc4c(c3)OCCO4)n2)c1)NC1CCCCC1 [compound 508]
IC50 [1]: > 20 µM | IC50 [2, 7]: > 20 µM

Compound: CCOC(=O)c1cc2cccc(Nc3ncc(F)c(NCCO)n3)c2[nH]1 [compound 667]
IC50 [3, 11]: > 20 µM | IC50 [2, 9]: > 20 µM | IC50 [4, 12]: > 20 µM

Compound: Oc1cccc(Nc2ncc(F)c(Nc3ccc(OCCN4CCOCC4)cc3)n2)c1 [compound 746]
IC50 [1]: > 20 µM | IC50 [2, 5]: > 20 µM

Compound: OCc1cc(CO)cc(Nc2ncc(F)c(Nc3ccc4c(c3)OCCO4)n2)c1 [compound 529]
IC50 [3, 10]: ≤ 20 µM | IC50 [2, 7]: ≤ 20 µM | IC50 [4, 8]: ≤ 20 µM

Compound: O=C(COc1cccc(Nc2ncc(F)c(Nc3ccc4c(c3)OCCO4)n2)c1)N1CCOCC1 [compound 493]
IC50 [3, 10]: ≤ 20 µM | IC50 [2, 7]: < 20 µM | IC50 [4, 8]: < 20 µM

Compound: Fc1cnc(Nc2cccc(OCCN3CCOCC3)c2)nc1Nc1ccc2c(c1)OCCO2 [compound 494]
IC50 [3, 10]: ≤ 20 µM | IC50 [2, 7]: ≤ 20 µM | IC50 [4, 8]: ≤ 20 µM

Compound: O=C(COc1cccc(Nc2ncc(F)c(NC3CCC3)n2)c1)NC1CC1 [compound 110]
IC50 [3, 13]: ≤ 20 µM | IC50 [2, 14]: ≤ 20 µM | IC50 [4, 8]: ≤ 20 µM

Further lines, results first:

IC50 [1]: > 20 µM | IC50 [2, 5]: > 20 µM
Compound: CC(C)Oc1ccc(Nc2nc(Nc3cccc(OCC(=O)O)c3)ncc2F)cc1 [compound 752]

IC50 [1]: ≤ 20 µM | IC50 [2, 5]: ≤ 20 µM
Compound: CNC(=O)COc1cccc(Nc2ncc(F)c(Nc3ccc(C)c(OC)c3)n2)c1 [compound 790]

IC50 [1]: ≤ 20 µM
Compound: CNC(=O)c1cc2cc(Nc3ncc(F)c(Nc4ccc(C(C)(C)C)cc4)n3)ccc2o1 [compound 642]

IC50 [1]: > 20 µM | IC50 [2, 6]: ≤ 20 µM
Compound: Cc1cc(Nc2nc(Nc3cccc(OCC(=O)N4CCNCC4)c3)ncc2F)cc(C)c1O [compound 980]

IC50 [1]: ≤ 20 µM
Compound: Oc1ccc(Nc2ncc(F)c(Nc3ccc(O)c(F)c3)n2)cc1F [compound 742]

IC50 [1]: > 20 µM | IC50 [2, 5]: > 20 µM
Compound: CC(C)c1ccc(Nc2ncc(F)c(Nc3cccc(O)c3)n2)cc1 [compound 764]

IC50 [1]: ≤ 20 µM | IC50 [2, 7]: > 20 µM
Compound: CC(C)c1ccc(Nc2ncc(F)c(Nc3ccc4c(c3)OCCO4)n2)cc1 [compound 511]

IC50 [1]: > 20 µM | IC50 [2, 6]: > 20 µM
Compound: COC(=O)COc1cccc(Nc2ncc(F)c(Nc3cc(C)c(OC)c(C)c3)n2)c1 [compound 985]

IC50 [1]: > 20 µM | IC50 [2, 6]: > 20 µM
Compound: Cc1cc(Nc2ncc(F)c(Nc3cccc(C(C)(C)C)c3)n2)cc(Cl)c1O [compound 959]

IC50 [1]: > 20 µM | IC50 [2, 5]: ≤ 20 µM
Compound: CNC(=O)COc1cccc(Nc2ncc(F)c(Nc3ccc(OC(F)(F)F)c(Cl)c3)n2)c1 [compound 699]

IC50 [1]: ≤ 20 µM | IC50 [2, 6]: > 20 µM
Compound: COc1c(C)cc(Nc2nc(Nc3cccc(OCCN4CCNCC4)c3)ncc2F)cc1C [compound 987]

IC50 [1]: > 20 µM | IC50 [2, 7]: > 20 µM
Compound: COC(=O)COc1cccc(Nc2ncc(F)c(Nc3ccc4c(c3)OCCCO4)n2)c1 [compound 580]

IC50 [1]: ≤ 20 µM | IC50 [2, 6]: ≤ 20 µM
Compound: Cc1cc(Nc2nc(Nc3cccc(OCCN4CCOCC4)c3)ncc2F)cc(Cl)c1O [compound 957]

IC50 [1]: ≤ 20 µM | IC50 [2, 9]: ≤ 20 µM
Compound: COC(=O)c1cc2cc(Nc3ncc(F)c(Nc4ccc5c(c4)NC(=O)C(F)(F)O5)n3)ccc2o1 [compound 676]

IC50 [1]: > 20 µM | IC50 [2, 7]: > 20 µM
Compound: Fc1cnc(Nc2ccc(OCCN3CCOCC3)cc2)nc1Nc1ccc2c(c1)OCCO2 [compound 502]

IC50 [1]: > 20 µM | IC50 [2, 5]: > 20 µM
Compound: CNC(=O)COc1cccc(Nc2ncc(F)c(Nc3ccc(OC)c(OC)c3)n2)c1 [compound 753]

IC50 [1]: ≤ 20 µM | IC50 [2, 5]: ≤ 20 µM
Compound: COc1cc(Nc2ncc(F)c(Nc3cccc(O)c3)n2)cc(OC)c1 [compound 765]

IC50 [1]: > 20 µM | IC50 [2, 6]: > 20 µM
Compound: COc1c(C)cc(Nc2nc(Nc3cccc(OCC(=O)N4CCNCC4)c3)ncc2F)cc1C [compound 986]

IC50 [1]: > 20 µM | IC50 [2, 6]: > 20 µM
Compound: CNC(=O)COc1cccc(Nc2ncc(F)c(Nc3cccc(C(C)(C)C)c3)n2)c1 [compound 960]

IC50 [1]: > 20 µM | IC50 [2, 5]: > 20 µM
Compound: CNC(=O)COc1cccc(Nc2ncc(F)c(Nc3cc(OC)cc(OC)c3)n2)c1 [compound 767]

IC50 [1]: ≤ 20 µM | IC50 [2, 15]: ≤ 20 µM
Compound: O=C1COc2ccc(Nc3nc(Nc4cccc(O)c4)ncc3F)cc2N1 [compound 254]

IC50 [1]: > 20 µM | IC50 [2, 9]: > 20 µM
Compound: CN(C)C(=O)c1cc2cc(Nc3ncc(F)c(Nc4cccc(O)c4)n3)ccc2o1 [compound 643]

IC50 [1]: > 20 µM | IC50 [2, 5]: > 20 µM
Compound: COc1ccc(Nc2nc(Nc3cccc(OCC(=O)NCC(O)CO)c3)ncc2F)cc1OC (stereo not drawn) [compound 754]

IC50 [1]: > 20 µM | IC50 [2, 6]: < 20 µM
Compound: CC(C)(C)c1cccc(Nc2nc(Nc3cccc(OCC(=O)NCC(O)CO)c3)ncc2F)c1 (stereo not drawn) [compound 961]

IC50 [1]: ≤ 20 µM | IC50 [2, 15]: ≤ 20 µM
Compound: CNC(=O)COc1cccc(Nc2ncc(F)c(Nc3ccc4c(c3)NC(=O)C(C)O4)n2)c1 (racemic) [compound 256]

IC50 [1]: ≤ 20 µM | IC50 [2, 5]: > 20 µM
Compound: CNC(=O)COc1ccc(Nc2ncc(F)c(Nc3ccc(C(C)(C)C)cc3)n2)cc1 [compound 747]

IC50 [1]: ≤ 20 µM | IC50 [2, 5]: > 20 µM
Compound: O=C(COc1cccc(Nc2ncc(F)c(Nc3cccc(O)c3)n2)c1)N1CCOCC1 [compound 762]

IC50 [1]: ≤ 20 µM
Compound: CNC(=O)COc1cccc(Nc2ncc(F)c(Nc3ccc4c(c3)OCCO4)n2)c1 [compound 516]

IC50 [1]: ≤ 20 µM
Compound: CNC(=O)COc1cccc(Nc2ncc(F)c(Nc3ccc4c(n3)NC(=O)CO4)n2)c1 [compound 418]
